The series can be described thus: photoluminescence quantum yield (fraction); solvent given as SMILES.

“And” between values parts separate entries of the source, which are not always exact repeats. Equal values may be shown once.

As for `COc1cc(OC)cc(-c2ccc(-c3ccc(C#N)s3)s2)c1`, the photoluminescence quantum yield (in C1CCCCC1) is 0.09; the photoluminescence quantum yield (in C1COCCO1) turned out to be 0.09; the photoluminescence quantum yield (in CC#N) amounted to 0.11; the photoluminescence quantum yield (in CC(C)O) came out at 0.1; the photoluminescence quantum yield (in CCCCO) came to 0.1; the photoluminescence quantum yield (in CCO) amounted to 0.1. Besides, the photoluminescence quantum yield (in CCOC(C)=O) turned out to be 0.09; the photoluminescence quantum yield (in CN(C)C=O) is 0.12; the photoluminescence quantum yield (in CO) worked out at 0.1; the photoluminescence quantum yield (in CS(C)=O) stood at 0.16; the photoluminescence quantum yield (in Cc1ccccc1) stood at 0.09; the photoluminescence quantum yield (in ClC(Cl)Cl) was 0.1. Also, the photoluminescence quantum yield is 0.09 (in ClCCl) and 0.02 (in O).
Where the note is “in CO”, `COC(=O)c1cc(OC)ccc1OC` returned a photoluminescence quantum yield of 0.64.
Consider `CCN(CC)c1ccc(-c2cc3c(s2)c(C(=O)OC)cc(=O)n3C)cc1`, for which the photoluminescence quantum yield was 0.97 (in C1CCOC1); 0.08 (in CC#N); 0.04 (in CCO); 0.16 (in CN(C)C=O); 0.1 (in CS(C)=O); 0.98 (in Cc1ccccc1). The photoluminescence quantum yield reads like this: (in ClC(Cl)Cl) 0.99; (in ClCCl) 0.91.
For the molecule `CCCCCCC1(CCCCCC)c2ccccc2-c2ccc(-c3ccc(-c4cc(-c5ccccn5)nc(-c5ccccn5)c4)cc3)cc21`, the photoluminescence quantum yield (in ClCCl) was found to be 0.92.
Under “in ClCCl”, `COc1cc2c(cc1OC)C1=C[C@H](c3ccccc3)C3(C(C(=O)O[C@@H]4C[C@H]5CC[C@@H]4C5)=C(C(=O)O[C@H]4C[C@@H]5CC[C@H]4C5)N1CC2)c1ccccc1-c1ccccc13` returned a photoluminescence quantum yield of 0.00157.
Turning to `CCCCCCCC[n+]1ccc(-c2cc[n+](CCCCCCCC)cc2)cc1`, the photoluminescence quantum yield (in CC#N) is 0.009.
Turning to `N[C@@H](Cn1nnc2cc(-c3ccc(N4CCOCC4)cc3)ccc21)C(=O)O`, where the note is “in CO”, the photoluminescence quantum yield came out at 0.004.
In turn, `c1cc2c3c(cccc3c1)-c1c-2ccc2ccc3ccccc3c12` came in with a photoluminescence quantum yield (in CCCCCCC) of 0.14.
The molecule `CCC12C(=C3C(=C4c5ccccc5S(=O)(=O)C41CC)C(F)(F)C(F)(F)C3(F)F)c1ccccc1S2(=O)=O` (stereo unspecified) had a photoluminescence quantum yield (in C1COCCO1) of 0.22.
Regarding `Oc1ccc2ccccc2c1/C=N/c1ccccc1/N=C/c1c(O)ccc2ccccc12`, the photoluminescence quantum yield (in CC#N) turned out to be 0.3.
For `Cc1cc(C)c(B2c3cc(C(C)(C)C)ccc3-c3cccc4cc(C(C)(C)C)cc2c34)c(C)c1`, the photoluminescence quantum yield (in C1CCCCC1) was determined as 0.8.
Molecule `N#Cc1ccc(/C=C/C=C/C2=NC3C(=O)NC(N)=NC3N2[C@H]2C[C@H](O)[C@@H](CO)O2)cc1` (stereo partly specified) had a photoluminescence quantum yield (in C1COCCO1) of 0.75, a photoluminescence quantum yield (in CC#N) of 0.47 and a photoluminescence quantum yield (in CO) of 0.32.
Turning to `COc1cc(OC)cc(-c2ccc(C3=CC(c4ccccc4)=C(c4ccccc4)C3)cc2)c1`, under “in ClCCl”, the photoluminescence quantum yield came out at 0.0575.
`COc1ccc(N(c2ccc(C=C(c3ccccc3)c3ccccc3)cc2)c2ccc(OC)cc2)cc1` showed a photoluminescence quantum yield (in Cc1ccccc1) of 0.01.
Where the note is “in ClCCl”, `c1cc(-c2ccc(-n3c4ccccc4c4ccccc43)cc2)c2nsnc2c1` registered a photoluminescence quantum yield of 0.68.
The molecule `COc1ccc(-c2nnc(-c3cc(-n4c5ccccc5c5ccccc54)c(-n4c5ccccc5c5ccccc54)cc3-c3nnc(-c4ccc(OC)cc4)o3)o2)cc1` returned a photoluminescence quantum yield (in Cc1ccccc1) of 0.47.
With `CC[N+]1(CC)CN2C(=N1)C(C(=O)O)=Cc1cc(F)ccc12`, the photoluminescence quantum yield (in O) is 0.344.
`CCN(CC)c1ccc2cc(-c3nc4ccccc4n3-c3ccccc3)c(=O)oc2c1` displayed a photoluminescence quantum yield (in ClCCl) of 0.94.
Take `N#Cc1c(-n2c3ccccc3c3ccccc32)c(C#N)c(-n2c3ccccc3c3ccccc32)c(-n2c3ccccc3c3ccccc32)c1-n1c2ccccc2c2ccccc21`: the photoluminescence quantum yield is 0.938 and 0.88 (in Cc1ccccc1); 0.83 (in c1ccc2c(c1)c1ccccc1n2-c1ccc(-c2ccc(-n3c4ccccc4c4ccccc43)cc2)cc1).
Where the note is “in C1CCCCC1”, `C[Si](C)(C)C#Cc1ccc(C#C[Si](C)(C)C)c2ccccc12` gave a photoluminescence quantum yield of 0.85.
With `C(#Cc1ncc(-c2ccccc2)o1)c1ccco1`, the photoluminescence quantum yield (in ClCCl) came to 0.
In the case of `O=C1NC(=O)c2ccc3c4ccc5c6c(ccc(c7ccc1c2c73)c64)C(=O)N(c1ccc(O)cc1)C5=O`, where the note is “in CN(C)C=O”, the photoluminescence quantum yield worked out at 0.15.
For the setting “in C1CCOC1”, `CC(C)(C)c1ccc(C2=C(c3ccc(-n4c5ccccc5c5ccccc54)cc3)S(=O)(=O)c3c2sc(-c2ccc(-n4c5ccccc5c5ccccc54)cc2)c3-c2ccc(C(C)(C)C)cc2)cc1` returned a photoluminescence quantum yield of 0.056.
Molecule `c1ccc(C2=C(c3ccccc3)c3cccc4c3c(cc3nc5ccccc5nc34)O2)cc1` registered a photoluminescence quantum yield (in ClCCl) of 0.54.
Turning to `CC(C)(C)c1ccc2c(c1)c1cc(C(C)(C)C)ccc1n2-c1cc(C(=O)c2ccncc2)cc(-n2c3ccc(C(C)(C)C)cc3c3cc(C(C)(C)C)ccc32)c1`, the photoluminescence quantum yield was determined as 0.075 (in Cc1ccccc1) and 0.97 (in c1cc(-c2cccc(-n3c4ccccc4c4ccccc43)c2)cc(-n2c3ccccc3c3ccccc32)c1).
`CC[N+]1(CC)CN2C(=N1)C(C(=O)O)=Cc1c2ccc2ccccc12` returned a photoluminescence quantum yield (in O) of 0.711.
As for `CCn1c2ccccc2c2cc(/C=C/c3cccc(/C=C/c4ccc5c(c4)c4ccccc4n5CC)[n+]3CCCS(=O)(=O)[O-])ccc21`, the photoluminescence quantum yield amounted to 0.1 (in C1CCOC1), 0.03 (in CC#N), 0.03 (in CC(C)=O) and 0.08 (in Cc1ccccc1).
In the case of `O=C([O-])c1ccc2cc3cc(C(=O)[O-])ccc3cc2c1`, the photoluminescence quantum yield (in CN(C)C=O) worked out at 0.11.
Regarding `COc1ccc(C(=O)OCc2c(C)c(=O)n3c(=O)c(C)c(C)n23)cc1`, for the setting “in CCO”, the photoluminescence quantum yield is 0.637.
`O=C(O)c1ccc(-c2nc(-c3ccccc3)c3c4ccccc4ccn23)cc1` came in with a photoluminescence quantum yield (in CC#N) of 0.38.
Turning to `COc1ccc(-c2sc3c(-c4ccc(OC)cc4)c4n(c3c2-c2ccc(OC)cc2)[B-](F)(F)[N+]2=Cc3c(-c5ccc(OC)cc5)c5sc(-c6ccc(OC)cc6)c(-c6ccc(OC)cc6)c5n3[B-](F)(F)[N+]2=C4)cc1`, the photoluminescence quantum yield was 0.36 (in CC#N); 0.46 (in CCCCCC); 0.32 (in CN(C)C=O); 0.51 (in Cc1ccccc1); 0.5 (in ClCCl).
For the molecule `O=c1cc2c(Br)c(O)c3cccc4ccc(o1)c2c43`, the photoluminescence quantum yield (in CC1CCCO1) amounted to 0.15.
Turning to `COc1ccc(-c2cnc(/C=C/c3ccccc3)o2)cc1OC`, the photoluminescence quantum yield (in ClCCl) was determined as 0.52.
Regarding `CC1(C)C(/C=C/C=C/C=C/C=C2/N(CCCCCC(=O)O)c3ccc(S(=O)(=O)[O-])cc3C2(C)C)=[N+](CCCCCC(=O)O)c2ccc(S(=O)(=O)[O-])cc21`, the photoluminescence quantum yield runs as follows: (in CO) 0.62; (in O) 0.28.
Regarding `COC(=O)c1ccc(C2=C3C(C)=CC(C)=[N+]3[B-](F)(F)n3c(/C=C/c4c[nH]cn4)cc(C)c32)cc1`, the photoluminescence quantum yield (in ClC(Cl)Cl) came out at 0.93.
With `COc1ccc(C#Cc2c3cc4ccccc4cc3c(C#Cc3ccc(OC)cc3)c3cc4ccccc4cc23)cc1`, the photoluminescence quantum yield (in ClCCl) was 0.03.
Where the note is “in ClCCl”, `c1ccc([B-]23Oc4ccccc4-c4c5[n+]6c(c([n+]42)-c2ccccc2O3)-c2ccccc2O[B-]6(c2ccccc2)Oc2ccccc2-5)cc1` gave a photoluminescence quantum yield of 0.2.
In turn, `CC[N+]1(CC)CN2C(=N1)C(C(=O)O)=Cc1cc(C)ccc12` had a photoluminescence quantum yield (in O) of 0.269.
As for `CCCCN1c2ccccc2Sc2cc(/C=C\c3cc(=O)oc4cc(C)ccc34)ccc21`, the photoluminescence quantum yield (in ClC(Cl)Cl) was determined as 0.21.

Values taken from the Deep4Chem optical property database.
